Data from PubChem BioAssay AID624285 (Broad Institute, 2012).
Calls of active or inactive are those of the source.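 Rule for the calls: active = signal-decreasing dose-response curve whose fitted half-maximal concentration is at or below twice the highest valid tested dose; inconclusive = flat fit at 30 to 70% signal loss, or poor fit; inactive = the rest.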

Assay: cytotoxicity in mammalian cells, dose response, cytotoxicity control for PDI inhibitor project, cell-based, 24 h, luminescence, cherry-picked samples (AID 624285)
Conditions: NIH3T3/HeLa viability, CellTiter-Glo ATP luminescence, 24 h; at 30 µM (top of the series)

| SMILES | activity change, negative = cytotoxicity |
| --- | --- |
| COc1ccc(CN(C)C[C@@H]2Oc3ccc(NC(=O)Nc4ccccc4)cc3CC(=O)N([C@H](C)CO)C[C@@H]2C)cc1 | -5.13% (inactive) |

Same assay, conditions: NIH3T3/HeLa viability, CellTiter-Glo ATP luminescence, 24 h; at 35 µM (top of the series)

| SMILES | activity change, negative = cytotoxicity |
| --- | --- |
| COc1cccc(NS(=O)(=O)c2ccc3c(c2)C2C=CCC2C(c2ccc(C(=O)O)cc2)N3)c1 (stereo not given) | -7.82% (inactive) |
| Clc1cccc(OCCCN2CCCC2)c1Cl | -17% (inactive) |
| Cc1ccc(CN(c2ccc(C(=O)NCc3ccccn3)cc2)S(C)(=O)=O)cc1 | -10.4% (inactive) |
| O=C(N/N=C/c1ccc(O)cc1)NC12CC3CC(CC(C3)C1)C2 | -14.1% (inactive) |
| Cc1ccc(SCC(=O)c2sc(-c3ccccc3)nc2C)cc1 | -11.9% (inactive) |
| CC(Cc1ccccc1Sc1ccccc1O)N(C)C (stereo not given) | -11.9% (inactive) |
| COc1ccccc1NS(=O)(=O)c1ccc(C)c(C(=O)NCC2(N(C)C)CCCCC2)c1 | -11.3% (inactive) |
| Cc1c(C(=O)N2CCOCC2)sc2ncn(CC(=O)N3CCC(C)CC3)c(=O)c12 | -2.62% (inactive) |
| Cc1ccc2nsnc2c1NC(=O)c1cccnc1Cl | -3.17% (inactive) |
| CCOC(=O)c1c(-c2ccccc2)oc2cc(Br)c(O)cc12 | -20.5% (inactive) |
| Cn1cc(Cl)c(C(=O)OCC(=O)Nc2ccccc2)n1 | -7.99% (inactive) |
| O=C(Nc1oc2ccccc2c(=O)c1-c1ccc(Cl)cc1)c1ccco1 | -2.88% (inactive) |
| N#Cc1c(NCCCO)nc(-c2ccco2)c2c1CCCC2 | -19.8% (inactive) |
| O=c1[nH]c(C2CCN(S(=O)(=O)c3ccc(C(F)(F)F)cc3)CC2)nc2c1nnn2Cc1ccc(F)cc1 | -22.8% (inactive) |
| CC(=O)OC[C@H]1O[C@@H](Oc2cc(O)cc3oc(-c4ccc(O)cc4)cc(=O)c23)[C@H](O[C@@H]2O[C@@H](C)[C@H](O)[C@@H](O)[C@H]2O)[C@@H](O)[C@@H]1O | -6.13% (inactive) |
| C[C@@H]1O[C@@H](O[C@H]2[C@H](O)[C@@H](O)[C@H](Oc3c(-c4ccc(O)c(O)c4)oc4cc(O)cc(O)c4c3=O)O[C@@H]2CO)[C@H](O)[C@H](O)[C@H]1O | 1.36% (inactive) |
| Cc1noc(C)c1S(=O)(=O)Nc1ccc2c(c1)CC(=O)N([C@H](C)CO)C[C@@H](C)[C@H](CN(C)S(=O)(=O)c1ccc(F)cc1)O2 | 4.61% (inactive) |
| CC1CCCN(c2cc3c(cc2[N+](=O)[O-])C(=O)N(c2ccccc2)C3=O)C1 (stereo not given) | 0.75% (inactive) |
| Cc1cc(=O)c(C(=O)Nc2cccc(C(=O)NC3CC3)c2)nn1-c1ccccc1 | -3.19% (inactive) |
| CCOC(=O)c1cc(S(=O)(=O)N2CCN(C(=O)OCC)CC2)cn1C | -3.84% (inactive) |
| CN(C)c1ccc(NC(=O)CN2C(=O)CC(c3ccccc3)=Nc3ccccc32)cc1 | -19.2% (inactive) |
| CC1Cc2ccccc2N1C(=O)CSc1nnc2sc3ccccc3n12 (stereo not given) | -7.39% (inactive) |
| CCOC(=O)c1c(CN2CCN(CCO)CC2)n(C)c2cc(Br)c(OC)cc12 | -17.2% (inactive) |
| Cc1noc(C)c1S(=O)(=O)Nc1ccc2c(c1)CC(=O)N([C@H](C)CO)C[C@H](C)[C@@H](CN(C)S(=O)(=O)c1ccc(F)cc1)O2 | 4.98% (inactive) |
| O=C1NC[C@H](Cc2ccc(O)cc2)N(CC2CCCCC2)C1=O | -25.4% (inactive) |

| SMILES | activity change, negative = cytotoxicity |
| --- | --- |
| COCc1[nH][nH]c(=O)c1C=Nc1ccc(F)cc1F | -11.4% (inactive) |
| O=C(NCc1ccccc1)c1cc(C2CCCN(C(=O)C3CCCCC3)C2)on1 (stereo not given) | -16.2% (inactive) |
| CCOC(=O)C1(Cc2ccc(O)cc2)NC(c2ccccc2F)C2C(=O)N(C)C(=O)C21 (stereo not given) | -15.5% (inactive) |
| CNC[C@@H]1Oc2c(NS(C)(=O)=O)cccc2C(=O)N([C@@H](C)CO)C[C@H]1C | 1.39% (inactive) |
| COc1ccc(S(=O)(=O)NC(C)C(=O)Nc2ccccc2F)cc1 (stereo not given) | -4.66% (inactive) |
| CC(=O)c1ccc(NC(=O)c2cc(Cl)nc3ccccc23)cc1 | -8.36% (inactive) |
| Cn1nnnc1SCC(=O)Nc1cc(C(F)(F)F)ccc1N1CCOCC1 | -9.83% (inactive) |
| O=C1C[C@@H](c2ccc(O[C@@H]3O[C@H](CO)[C@@H](O)[C@H](O)[C@H]3O)cc2)Oc2cc(O)ccc21 | -5.71% (inactive) |
| CC1CCc2sc(C(=O)N/N=C/C3CCCCC3)cc2C1 (stereo not given) | -8.35% (inactive) |
| Cc1cccc(C(=O)OCC(=O)N2CCCCCC2)c1O | -10.1% (inactive) |
| O=C(CN(CCc1ccccc1)C(=O)CNS(=O)(=O)c1ccccc1)NCC1CCCO1 (stereo not given) | -1.76% (inactive) |
| CC(=O)c1ccc(N2CCN(C(=O)c3ccc4[nH]c(C)c(C)c4c3)CC2)cc1 | -9.89% (inactive) |
| C[C@H](CO)N1C[C@H](C)[C@@H](CN(C)S(=O)(=O)c2ccccc2)Oc2ccc(NC(=O)Cc3cn(C)c4ccccc34)cc2C1=O | -1.88% (inactive) |
| O=c1c(OC2OC(CO)C(O)C(O)C2O)c(-c2ccc(O)c(O)c2)oc2cc(O)cc(O)c12 (stereo not given) | -0.384% (inactive) |
| CCOC(=O)C1(CC2CC2)CCN(Cc2cc(Cl)c(O)c(OC)c2)CC1 | -20.4% (inactive) |
| O=C(Cc1ccccc1)Nc1cccc(C(=O)N/N=C/c2ccco2)c1 | -4.58% (inactive) |
| O=C(CSc1n[nH]c(-c2ccccc2)n1)Nc1ccccc1O | -6.55% (inactive) |
| COCC(=O)N(C)C1(c2nnnn2CCOC(=O)Nc2ccc(Cl)cc2)CCCC1 | -5.83% (inactive) |
| O=C(/C=C/c1ccc(NC(=O)c2ccccc2-c2ccccc2C(=O)O)cc1)c1ccccc1 | -8.34% (inactive) |
| COc1ccc(N(Cc2cc3cc(OC)ccc3[nH]c2=O)C(=O)C2CCCO2)cc1 (stereo not given) | -10.5% (inactive) |
| O=C(O)c1ccccc1Cc1ccc(F)c2ccccc12 | -10.5% (inactive) |
| COc1ccc(N2CCN(CC(=O)c3ccc(O)c(C)c3O)CC2)cc1 | -3.44% (inactive) |
| O=C(c1ccco1)N1CCN(Cc2cc(=O)oc3cc(O)ccc23)CC1 | -18% (inactive) |
| Cc1c(O)ccc2c(CC(=O)N[C@@H](Cc3c[nH]c4ccccc34)C(=O)O)cc(=O)oc12 | -8.56% (inactive) |
| Cc1cc(NC(=O)CSc2[nH]c(=O)cc(C(F)(F)F)c2C#N)no1 | -3.53% (inactive) |

| SMILES | activity change, negative = cytotoxicity |
| --- | --- |
| COc1ccc(CNC(=O)c2ccc(CS(=O)Cc3cccc(Cl)c3)o2)cc1 (stereo not given) | -9.18% (inactive) |
| Cc1noc(C)c1C(=O)OCC(=O)NCCc1ccc(Cl)cc1 | -14.2% (inactive) |
| O=c1cc(CSc2nnnn2-c2ccc(O)cc2)nc2sccn12 | -22.1% (inactive) |
| Cc1cc2c3c(c1)C1(C(=O)N3C(C)(C)CC2C)C(C#N)=C(N)Oc2n[nH]c(C)c21 (stereo not given) | -11.6% (inactive) |
| CCOC(C(=O)OCCCN(CC)CC)(c1ccccc1)c1ccccc1 | -17.8% (inactive) |
| COc1ccc(C2C(C(C)=O)=C(O)C(=O)N2CCc2c[nH]c3ccccc23)cc1OC (stereo not given) | -3.29% (inactive) |
| C[C@H](CO)N1C[C@H](C)[C@H](CN(C)S(=O)(=O)c2ccc(F)cc2)Oc2ccc(NC(=O)Cc3cn(C)c4ccccc34)cc2C1=O | -6.42% (inactive) |
| CC(=O)c1ccc(OCc2cc(C(=O)N3CCCCC3c3cccnc3)no2)cc1 (stereo not given) | -6.2% (inactive) |
| O=C(NN1CC(C(=O)OCc2ccccc2F)CC1=O)c1ccccc1 (stereo not given) | -2.89% (inactive) |
| CCOC(=O)c1c(CN2CCOCC2)n(-c2ccccc2)c2cc(Br)c(OC)cc12 | -12.1% (inactive) |
| Cc1cc(C)cc(OCC(=O)Nc2ccccc2C(=O)N2CCOCC2)c1 | -11.8% (inactive) |
| O=C1NC[C@H](Cc2ccccc2)N(C[C@H]2CCCN2C[C@H](Cc2ccc(O)cc2)N2C[C@H](Cc3ccc(O)cc3)N(CC3CCCCCC3)C(=O)C2=O)C1=O | -18.9% (inactive) |
| Cc1cccc(C)c1NC(=O)CN1CCNCC1 | -9.95% (inactive) |
| C[C@H](CO)N1C[C@H](C)[C@H](CN(C)Cc2ccccc2)Oc2ccc(NC(=O)Nc3ccccc3)cc2CC1=O | -11.2% (inactive) |
| CN(C)C(=O)CSc1nnc([C@H](Cc2c[nH]c3ccccc23)NC(=O)OC(C)(C)C)o1 | -2.37% (inactive) |
| COc1ccc(S(=O)(=O)NCC(c2ccc(F)cc2)N2CCOCC2)cc1Br (stereo not given) | -10.1% (inactive) |
| CC(O)(c1cccnc1)c1nc(-c2cc(F)cc(F)c2)cs1 (stereo not given) | -6.67% (inactive) |
| Cc1noc(C)c1S(=O)(=O)Nc1ccc2c(c1)CC(=O)N([C@H](C)CO)C[C@H](C)[C@H](CN(C)S(=O)(=O)c1ccccc1)O2 | 3.77% (inactive) |
| NC(=O)c1ccc(NC(=O)COC(=O)c2ccc(Br)c(S(=O)(=O)N3CCOCC3)c2)cc1 | -6.39% (inactive) |
| COc1cc2c(cc1OC)C1C(C(=O)Nc3ccccc3N3CCN(C)CC3)c3ccccc3C(=O)N1CC2 (stereo not given) | -11.8% (inactive) |
| CC(OC(=O)c1cccc(S(=O)(=O)N(C)C)c1)C(=O)NCC(=O)Nc1ccc(F)c(F)c1F (stereo not given) | -4.24% (inactive) |
| COc1cc(-c2oc3cc(O)cc(O)c3c(=O)c2O[C@@H]2O[C@H](COC3O[C@@H](C)[C@H](O)[C@@H](O)[C@H]3O)[C@@H](O)[C@H](O)[C@H]2O)ccc1O (stereo not given in full) | -2.55% (inactive) |
| O=C(c1cc([N+](=O)[O-])ccc1N1CCOCC1)N1CCN(c2ccc([N+](=O)[O-])cc2)CC1 | -16.5% (inactive) |
| COc1ccccc1NS(=O)(=O)c1cccc(C(=O)NCC2(N(C)C)CCCCC2)c1 | -8.59% (inactive) |
